Consider 25 molecules from patent publication US20240109930A1, “TRIAZOLYL-METHYL SUBSTITUTED ALPHA-D-GALACTOPYRANOSIDE DERIVATIVES” (Idorsia Pharmaceuticals Ltd, priority 2021, published 2024).

Experiment [1] deals with human Gal-1 (hGal-1) (Homo sapiens, UniProt P09382, C131S/C17S/C43S/C61S/C89S). As to the kind of experiment: Competitive binding assay: biotinylated hGal-1 binding to microplate-adsorbed asialofetuin (ASF). Conditions: IC50 values from several measurements given as geomean. A digest of the protocol: (§1)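 Biotinylated hGal-3 or hGal-1 (preferably cysteine-free Cys→Ser mutant), 300–1000 ng/mL, competes with compound for ASF-coated wells for 3 h at 4 °C. Bound lectin detected with streptavidin-peroxidase (80 ng/mL, 1 h, 4 °C) and ABTS by absorbance; IC50 reported as geomean of several runs.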

Experiment [2] deals with human Gal-3 (hGal-3) (Homo sapiens (Human), UniProt P17931). As to the kind of experiment: Competitive binding assay: biotinylated hGal-3 binding to microplate-adsorbed asialofetuin (ASF). The conditions noted are these: IC50 values from several measurements given as geomean. A digest of the protocol:
as §1

human Gal-3 (hGal-3), sequence (P17931 whole entry): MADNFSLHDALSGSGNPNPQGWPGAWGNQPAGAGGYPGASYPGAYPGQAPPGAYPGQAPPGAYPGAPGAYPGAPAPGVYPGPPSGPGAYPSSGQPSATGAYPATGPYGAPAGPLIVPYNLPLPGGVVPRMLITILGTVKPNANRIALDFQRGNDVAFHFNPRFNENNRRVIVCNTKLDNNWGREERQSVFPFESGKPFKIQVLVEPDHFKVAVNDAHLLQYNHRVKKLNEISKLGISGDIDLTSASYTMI

The IC50 is the point on the concentration scale where inhibition reaches its midpoint. As to `CO[C@@H]1[C@@H](n2cc(-c3ccc(Cl)c(F)c3F)nn2)[C@@H](O)[C@@H](CO)O[C@@H]1Cc1cn([C@H]2CCC[C@H]2F)nn1` [Example 2.1.79.B, (2R,3R,4S,5R,6R)-4-(4-(4-chloro-2,3-difluorophenyl)-1H-1,2,3-triazol-1-yl)-6-((1-((1S,2R)-2-fluorocyclopentyl)-1H-1,2,3-triazol-4-yl)methyl)-2-(hydroxymethyl)-5-methoxytetrahydro-2H-pyran-3-ol], the values for the IC50 in experiment [1] and in experiment [2] were 3160 nM and 30 nM, respectively.
For `CO[C@@H]1[C@@H](n2cc(-c3ccc(Cl)c(F)c3F)nn2)[C@@H](O)[C@@H](CO)O[C@@H]1Cc1cn(C23CC(C2)C3)nn1` [Ex 2.1.12.], in that order: 3250 nM and 50 nM.
For `CO[C@@H]1[C@@H](n2cc(-c3ccc(Cl)c(F)c3F)nn2)[C@@H](O)[C@@H](CO)O[C@@H]1Cc1cn(C2COCCC2(F)F)nn1` (single isomer, unassigned) [Example 2.1.73.B], in that order: 1200 nM and 60 nM.
The matching figures for `COCC1(n2cc(C[C@H]3O[C@H](CO)[C@H](O)[C@H](n4cc(-c5ccc(F)c(F)c5F)nn4)[C@H]3OC)nn2)COC1` [Ex 3.1.21.]: 770 nM and 60 nM.
Regarding `CO[C@@H]1[C@@H](n2cc(-c3ccc(Cl)c(F)c3F)nn2)[C@@H](O)[C@@H](CO)O[C@@H]1Cc1cn(C2CCC2(F)F)nn1` (single isomer, unassigned) [Example 2.1.63.A], the IC50 was 2170 nM in experiment [1] and 60 nM in experiment [2].
On to `CO[C@@H]1[C@@H](n2cc(-c3ccc(C)c(F)c3F)nn2)[C@@H](O)[C@@H](CO)O[C@@H]1Cc1cn(C23CC(F)(C2)C3)nn1` [Ex 1.1.25.], for which the values for the IC50 in experiment [1] and in experiment [2] were 3950 nM and 40 nM, respectively.
For `COCC1(n2cc(C[C@H]3O[C@H](CO)[C@H](O)[C@H](n4cc(-c5ccc(Cl)c(F)c5F)nn4)[C@H]3OC)nn2)COC1` [Ex 2.1.21.], in that order: 900 nM and 50 nM.
The matching figures for `CO[C@@H]1[C@@H](n2cc(-c3ccc(Cl)c(F)c3F)nn2)[C@@H](O)[C@@H](CO)O[C@@H]1Cc1cn(C2CC(C(F)(F)F)(C(F)(F)F)C2)nn1` [Ex 2.1.57.]: 28100 nM and 500 nM.
The matching figures for `CO[C@@H]1[C@@H](n2cc(-c3ccc(F)c(F)c3F)nn2)[C@@H](O)[C@@H](CO)O[C@@H]1Cc1cn([C@]2(C)C[C@@H](O)C2)nn1` [Ex 3.1.27.]: 140 nM and 30 nM.
Turning to `CO[C@@H]1[C@@H](n2cc(-c3ccc(F)c(F)c3F)nn2)[C@@H](O)[C@@H](CO)O[C@@H]1Cc1cn(C2(C(F)(F)F)CC2)nn1` [Ex 3.1.54.], the IC50 in experiment [1] was determined as 280 nM; in experiment [2] it was 50 nM.
For `CO[C@@H]1[C@@H](n2cc(-c3ccc(Cl)c(F)c3F)nn2)[C@@H](O)[C@@H](CO)O[C@@H]1Cc1cn(C2COCC2(F)F)nn1` (mixture of isomers) [Example 2.1.90.A], in that order: 1130 nM and 30 nM.
The matching figures for `CO[C@@H]1[C@@H](n2cc(-c3ccc(Cl)c(F)c3F)nn2)[C@@H](O)[C@@H](CO)O[C@@H]1Cc1cn(C2CC2C(C)C)nn1` (some centres unmarked) [Ex 2.1.17.]: 11500 nM and 160 nM.
For `CCC1(c2cn(C[C@H]3O[C@H](CO)[C@H](O)[C@H](n4cc(-c5ccc(F)c(F)c5F)nn4)[C@H]3OC)nn2)COC1` [Ex 3.2.38.], the 50% inhibitory concentration (IC50) in experiment [1] came out at 470 nM; in experiment [2], 50 nM.
As to `CO[C@@H]1[C@@H](n2cc(-c3ccc(Cl)c(F)c3F)nn2)[C@@H](O)[C@@H](CO)O[C@@H]1Cc1cn(C2(C)CC(F)(F)C2)nn1` [Ex 2.1.15.], the IC50 in experiment [1] turned out to be 1710 nM; in experiment [2] it was 50 nM.
The matching figures for `CO[C@@H]1[C@@H](n2cc(-c3ccc(Cl)c(F)c3F)nn2)[C@@H](O)[C@@H](CO)O[C@@H]1Cc1cn(C2(C(F)(F)F)CC3CCC2C3)nn1` (some centres unmarked) [Ex 2.1.70.]: 830 nM and 50 nM.
The matching figures for `CO[C@@H]1[C@@H](n2cc(-c3ccc(F)c(F)c3F)nn2)[C@@H](O)[C@@H](CO)O[C@@H]1Cc1cn(C2(CO)CC2)nn1` [Ex 3.1.4.]: 810 nM and 60 nM.
The matching figures for `CO[C@@H]1[C@@H](n2cc(-c3ccc(Br)c(F)c3F)nn2)[C@@H](O)[C@@H](CO)O[C@@H]1Cn1cc(C23CC(C2)C3)nn1` [Ex 4.2.12.]: 3310 nM and 90 nM.
`CO[C@@H]1[C@@H](n2cc(-c3ccc(Cl)c(F)c3F)nn2)[C@@H](O)[C@@H](CO)O[C@@H]1Cn1cc(C(C)(C)O)nn1` [Ex 2.2.34.]: the IC50 stood at 5120 nM in experiment [1] and 70 nM in experiment [2].
For `CO[C@@H]1[C@@H](n2cc(-c3ccc(C)c(F)c3F)nn2)[C@@H](O)[C@@H](CO)O[C@@H]1Cc1cn(C2(C(F)F)COC2)nn1` [Ex 1.1.53., (2R,3R,4S,5R,6R)-4-(4-(2,3-difluoro-4-methylphenyl)-1H-1,2,3-triazol-1-yl)-6-((1-(3-(difluoromethyl)oxetan-3-yl)-1H-1,2,3-triazol-4-yl)methyl)-2-(hydroxymethyl)-5-methoxytetrahydro-2H-pyran-3-ol], in that order: 520 nM and 20 nM.
For `CO[C@@H]1[C@@H](n2cc(-c3ccc(Cl)c(F)c3F)nn2)[C@@H](O)[C@@H](CO)O[C@@H]1Cn1cc(C2(O)CC(F)(F)C2)nn1` [Ex 2.2.85.], in that order: 5400 nM and 170 nM.
For `CO[C@@H]1[C@@H](n2cc(-c3ccc(Cl)c(F)c3F)nn2)[C@@H](O)[C@@H](CO)O[C@@H]1Cc1cn(C23CC(C(F)(F)F)(C2)C3)nn1` [Ex 2.1.24.], in that order: 6700 nM and 80 nM.
Consider `CO[C@@H]1[C@@H](n2cc(-c3ccc(Cl)c(F)c3F)nn2)[C@@H](O)[C@@H](CO)O[C@@H]1Cn1cc(C2(O)CCOCC2)nn1` [Ex 2.2.35.], for which the IC50 was found to be 3910 nM in experiment [1] and 60 nM in experiment [2].
For `CO[C@@H]1[C@@H](n2cc(-c3ccc(Br)c(F)c3F)nn2)[C@@H](O)[C@@H](CO)O[C@@H]1Cc1cn([C@H]2CCC[C@@H]2F)nn1` (relative stereo) [Example 4.1.79.CD, (2R,3R,4S,5R,6R)-4-(4-(4-bromo-2,3-difluorophenyl)-1H-1,2,3-triazol-1-yl)-6-((1-((1S*,2S*)-2-fluorocyclopentyl)-1H-1,2,3-triazol-4-yl)methyl)-2-(hydroxymethyl)-5-methoxytetrahydro-2H-pyran-3-ol], in that order: 4960 nM and 70 nM.
For `CO[C@@H]1[C@@H](n2cc(-c3ccc(Cl)c(F)c3F)nn2)[C@@H](O)[C@@H](CO)O[C@@H]1Cc1cn(C2(C(F)F)CCOC2)nn1` (single isomer, unassigned) [Example 2.1.78.B], in that order: 240 nM and 20 nM.
The matching figures for `CO[C@@H]1[C@@H](n2cc(-c3ccc(Br)c(F)c3F)nn2)[C@@H](O)[C@@H](CO)O[C@@H]1Cc1cn(C2(C(F)(F)F)CCC2)nn1` [Ex 4.1.55., (2R,3R,4S,5R,6R)-4-(4-(4-bromo-2,3-difluorophenyl)-1H-1,2,3-triazol-1-yl)-2-(hydroxymethyl)-5-methoxy-6-((1-(1-(trifluoromethyl)cyclobutyl)-1H-1,2,3-triazol-4-yl)methyl)tetrahydro-2H-pyran-3-ol]: 1480 nM and 30 nM.
